Read-outs that look alike come from different tables or passages of the source.
What was measured:
in vivo = settings: mouse
Experimental: PK assays were performed in mice (n=3). […] The following pharmacokinetic parameters were calculated.
The compounds were orally administered at 20 mg/kg and plasma samples were collected at 15, 30 minutes and 1, 2, 4, 6 and 8 hours after administration. The following pharmacokinetic parameters were calculated.

AML5 = assay: Cell proliferation of cancerous cell lines; type: cell-based; settings: AML5 cell line; read-out: Antineoplastic effect on cell proliferation, IC50
LY-1 = assay: Cell proliferation of cancerous cell lines; type: cell-based; settings: Ly1; LY-1 cell line; read-out: Antineoplastic effect on cell proliferation, IC50
MUTZ-2 = assay: Cell proliferation of cancerous cell lines; type: cell-based; settings: MUTZ-2 cell line; read-out: Antineoplastic effect on cell proliferation, IC50
KG1a = assay: Cell proliferation of cancerous cell lines; type: cell-based; settings: Homo sapiens, KG-1a; KG1a cell line; read-out: Antineoplastic effect on cell proliferation, IC50
KU-812 = assay: Cell proliferation of cancerous cell lines; type: cell-based; settings: Homo sapiens, KU812; KU-812 cell line; read-out: Antineoplastic effect on cell proliferation, IC50
AML3 = assay: Cell proliferation of cancerous cell lines; type: cell-based; settings: AML3 cell line; read-out: Antineoplastic effect on cell proliferation, IC50
Z-138 = assay: Cell proliferation of cancerous cell lines; type: cell-based; settings: Homo sapiens; Z-138 cell line; read-out: Antineoplastic effect on cell proliferation, IC50
MUTZ-8 = assay: Cell proliferation of cancerous cell lines; type: cell-based; settings: MUTZ-8 cell line; read-out: Antineoplastic effect on cell proliferation, IC50
EOL1 = assay: Cell proliferation of cancerous cell lines; type: cell-based; settings: Homo sapiens; EOL1 cell line; read-out: Antineoplastic effect on cell proliferation, IC50
MOLM-13 = assay: Cell proliferation of cancerous cell lines; type: cell-based; settings: Homo sapiens; MOLM-13 cell line; read-out: Antineoplastic effect on cell proliferation, IC50
CB = assay: Cell proliferation, CB sample of Table 2; settings: read-out: Antineoplastic effect on cell proliferation, IC50
SKNO = assay: Cell proliferation of cancerous cell lines; type: cell-based; settings: SKNO cell line; read-out: Antineoplastic effect on cell proliferation, IC50
KBM7 = assay: Cell proliferation of cancerous cell lines; type: cell-based; settings: KBM-7; KBM7 cell line; read-out: Antineoplastic effect on cell proliferation, IC50
HL-60 = assay: Cell proliferation of cancerous cell lines; type: cell-based; settings: Homo sapiens; HL-60 cell line; read-out: Antineoplastic effect on cell proliferation, IC50
AML4 = assay: Cell proliferation of cancerous cell lines; type: cell-based; settings: AML4 cell line; read-out: Antineoplastic effect on cell proliferation, IC50
MonoMac = assay: Cell proliferation of cancerous cell lines; type: cell-based; settings: MonoMac cell line; read-out: Antineoplastic effect on cell proliferation, IC50
NB-4 = assay: Cell proliferation of cancerous cell lines; type: cell-based; settings: Homo sapiens; NB-4 cell line; read-out: Antineoplastic effect on cell proliferation, IC50
KG1 = assay: Cell proliferation of cancerous cell lines; type: cell-based; settings: Homo sapiens, KG-1; KG1 cell line; read-out: Antineoplastic effect on cell proliferation, IC50
UT-7 = assay: Cell proliferation of cancerous cell lines; type: cell-based; settings: Homo sapiens, UT7; UT-7 cell line; read-out: Antineoplastic effect on cell proliferation, IC50
AML samples = assay: Cell proliferation of cancerous samples from patients

## Cn1nnc(-c2ccc3c(c2)[nH]c2ncnc(NCCCN4CCCCC4)c23)n1 [UM681]
In vivo; female, po, 20 mg/kg
  bioavailability: 39%
In vivo; male, po, 20 mg/kg
  bioavailability: 31%
In vivo; iv, 1 mg/kg
  Vd: 14.3 L/kg
  clearance: 109 mL/min/kg
  half-life: 1.9 h
In vivo; po, 20 mg/kg
  AUC: 2.45 µM·h
  Cmax: 200 nM
  Tmax: 4 h
AML5
  IC50: 1 to 10 µM
LY-1
  IC50: > 10 µM
MUTZ-2
  IC50: 1 to 10 µM
KG1a
  IC50: 1 to 10 µM
KU-812
  IC50: 1 to 10 µM
AML3
  IC50: 1 to 10 µM
Z-138
  IC50: 1 to 10 µM
MUTZ-8
  IC50: > 10 µM
EOL1
  IC50: 0.25 to 1 µM
MOLM-13
  IC50: 0.25 to 1 µM
CB
  IC50: 1 to 10 µM
SKNO
  IC50: 1 to 10 µM
KBM7
  IC50: > 10 µM
HL-60
  IC50: 1 to 10 µM
AML4
  IC50: 0.25 to 1 µM
MonoMac
  IC50: 1 to 10 µM
NB-4
  IC50: 1 to 10 µM
KG1
  IC50: 1 to 10 µM
UT-7
  IC50: > 10 µM
AML samples; read-out: Antineoplastic effect on cell proliferation, IC50, AML sample 04H063
  IC50: 1 to 10 µM
AML samples; read-out: Antineoplastic effect on cell proliferation, IC50, AML sample 05H094
  IC50: 1 to 10 µM
AML samples; read-out: Antineoplastic effect on cell proliferation, IC50, AML sample 05H149
  IC50: 1 to 10 µM
AML samples; read-out: Antineoplastic effect on cell proliferation, IC50, AML sample 06H045
  IC50: 1 to 10 µM
AML samples; read-out: Antineoplastic effect on cell proliferation, IC50, AML sample 06H088
  IC50: > 10 µM
AML samples; read-out: Antineoplastic effect on cell proliferation, IC50, AML sample 06H117
  IC50: 1 to 10 µM
AML samples; read-out: Antineoplastic effect on cell proliferation, IC50, AML sample 07H005
  IC50: 1 to 10 µM
AML samples; read-out: Antineoplastic effect on cell proliferation, IC50, AML sample 07H038
  IC50: 1 to 10 µM
AML samples; read-out: Antineoplastic effect on cell proliferation, IC50, AML sample 07H045
  IC50: > 10 µM
AML samples; read-out: Antineoplastic effect on cell proliferation, IC50, AML sample 07H125
  IC50: 1 to 10 µM
AML samples; read-out: Antineoplastic effect on cell proliferation, IC50, AML sample 07H135
  IC50: 1 to 10 µM
AML samples; read-out: Antineoplastic effect on cell proliferation, IC50, AML sample 07H151
  IC50: > 10 µM
AML samples; read-out: Antineoplastic effect on cell proliferation, IC50, AML sample 08H018
  IC50: > 10 µM
AML samples; read-out: Antineoplastic effect on cell proliferation, IC50, AML sample 09H010
  IC50: 1 to 10 µM
AML samples; read-out: Antineoplastic effect on cell proliferation, IC50, AML sample 09H046
  IC50: > 10 µM
AML samples; read-out: Antineoplastic effect on cell proliferation, IC50, AML sample 09H079
  IC50: 1 to 10 µM
AML samples; read-out: Antineoplastic effect on cell proliferation, IC50, AML sample 09H115
  IC50: 1 to 10 µM
AML samples; read-out: Antineoplastic effect on cell proliferation, IC50, AML sample 10H022
  IC50: 0.25 to 1 µM
AML samples; read-out: Antineoplastic effect on cell proliferation, IC50, AML sample 10H127
  IC50: 1 to 10 µM
AML samples; read-out: Antineoplastic effect on cell proliferation, IC50, AML sample 11H002
  IC50: 1 to 10 µM
AML samples; read-out: Antineoplastic effect on cell proliferation, IC50, AML sample 11H046
  IC50: 0.25 to 1 µM
AML samples; read-out: Antineoplastic effect on cell proliferation, IC50, AML sample 11H103
  IC50: 1 to 10 µM
AML samples; read-out: Antineoplastic effect on cell proliferation, IC50, AML sample 12H045
  IC50: 1 to 10 µM
AML samples; read-out: Antineoplastic effect on cell proliferation, IC50, AML sample 12H058
  IC50: 1 to 10 µM
AML samples; read-out: Antineoplastic effect on cell proliferation, IC50, AML sample 12H096
  IC50: > 10 µM
AML samples; read-out: Antineoplastic effect on cell proliferation, IC50, AML sample 12H106
  IC50: > 10 µM
AML samples; read-out: Antineoplastic effect on cell proliferation, IC50, AML sample 12H151
  IC50: 1 to 10 µM
AML samples; read-out: Antineoplastic effect on cell proliferation, IC50, AML sample 13H100
  IC50: 1 to 10 µM
AML samples; read-out: Antineoplastic effect on cell proliferation, IC50, AML sample 13H150
  IC50: 1 to 10 µM

From patent publication US20230073512A1, “MODULATORS OF CULLIN 3 ADAPTOR KBTBD4 AS ANTI-CANCER COMPOUNDS” (UNIVERSITE DE MONTREAL, priority 2019, published 2023)
